“And” between values parts separate entries of the source, which are not always exact repeats. Identical values can stand only once. Inconclusive results are not listed.
System: BDF1 mice, colon carcinoma 38 sc, T/C %
Assay: NCI In Vivo Anticancer Drug Screen. Data for tumor model Colon Carcinoma 38 (subcutaneous) in B6D2F1 (BDF1) mice
Details: endpoint: median tumor weight (est.), higher = larger tumour
Outline: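 T/C readout: treated group (T) measurement over vehicle control group (C) measurement. Endpoint is survival or tumor size in mice bearing a transplanted tumor.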

[1] = dose: 12.5 mg/kg/injection, schedule: Q07DX002 (ip), vehicle: saline
[2] = dose: 25.0 mg/kg/injection, schedule: Q07DX002 (ip), vehicle: saline
[3] = dose: 50.0 mg/kg/injection, schedule: Q07DX002 (ip), vehicle: saline
[4] = dose: 100.0 mg/kg/injection, schedule: Q07DX002 (ip), vehicle: saline
[5] = dose: 200.0 mg/kg/injection, schedule: Q07DX002 (ip), vehicle: saline
[6] = dose: 400.0 mg/kg/injection, schedule: Q07DX002 (ip), vehicle: saline
[7] = dose: 10.0 mg/kg/injection, schedule: Q07DX002 (ip), vehicle: suspension in saline
[8] = dose: 20.0 mg/kg/injection, schedule: Q07DX002 (ip), vehicle: suspension in saline
[9] = dose: 40.0 mg/kg/injection, schedule: Q07DX002 (ip), vehicle: suspension in saline
[10] = dose: 12.5 mg/kg/injection, schedule: Q07DX002 (ip), vehicle: saline with Tween-80
[11] = dose: 25.0 mg/kg/injection, schedule: Q07DX002 (ip), vehicle: saline with Tween-80
[12] = dose: 50.0 mg/kg/injection, schedule: Q07DX002 (ip), vehicle: saline with Tween-80
[13] = dose: 100.0 mg/kg/injection, schedule: Q07DX002 (ip), vehicle: saline with Tween-80
[14] = dose: 200.0 mg/kg/injection, schedule: Q07DX002 (ip), vehicle: saline with Tween-80
[15] = dose: 400.0 mg/kg/injection, schedule: Q07DX002 (ip), vehicle: saline with Tween-80
[16] = dose: 6.25 mg/kg/injection, schedule: Q07DX002 (ip), vehicle: saline with Tween-80
[17] = dose: 25.0 mg/kg/injection, schedule: Q07DX002 (ip), vehicle: Klucel (hydroxypropylcellulose) (HPC)
[18] = dose: 50.0 mg/kg/injection, schedule: Q07DX002 (ip), vehicle: Klucel (hydroxypropylcellulose) (HPC)
[19] = dose: 100.0 mg/kg/injection, schedule: Q07DX002 (ip), vehicle: Klucel (hydroxypropylcellulose) (HPC)
[20] = dose: 200.0 mg/kg/injection, schedule: Q07DX002 (ip), vehicle: Klucel (hydroxypropylcellulose) (HPC)

SMILES: Nc1nncs1
- T/C [1]: 71 % of control
- T/C [2]: 114 % of control
- T/C [3]: 78 % of control
- T/C (dose: 50.0 mg/kg/injection, schedule: Q07DX003 (ip), vehicle: saline): 74 % of control
- T/C [4]: 68 % of control
- T/C (dose: 100.0 mg/kg/injection, schedule: Q07DX003 (ip), vehicle: saline): 78 % of control and 79 % of control
- T/C [5]: 53 % of control
- T/C (dose: 200.0 mg/kg/injection, schedule: Q07DX003 (ip), vehicle: saline): 58 % of control and 74 % of control
- T/C [6]: 65 % of control
- T/C (dose: 400.0 mg/kg/injection, schedule: Q07DX003 (ip), vehicle: saline): 35 % of control and 38 % of control
- T/C (dose: 800.0 mg/kg/injection, schedule: Q07DX003 (ip), vehicle: saline): 51 % of control and 53 % of control

SMILES: CC1=C(C)C(=O)O[C@@H]([C@](C)(O)[C@]2(O)CC[C@@]3(O)[C@@H]4C[C@H]5O[C@]56CC=CC(=O)[C@]6(C)[C@H]4CC[C@]23C)C1
- T/C [1]: 110 % of control
- T/C [2]: 96 % of control
- T/C (dose: 28.1 mg/kg/injection, schedule: Q07DX002 (ip), vehicle: saline): 162 % of control
- T/C (dose: 56.2 mg/kg/injection, schedule: Q07DX002 (ip), vehicle: saline): 90 % of control
- T/C [4]: 117 % of control
- T/C (dose: 112.5 mg/kg/injection, schedule: Q07DX002 (ip), vehicle: saline): 160 % of control
- T/C [5]: 83 % of control
- T/C (dose: 225.0 mg/kg/injection, schedule: Q07DX002 (ip), vehicle: saline): 70 % of control

SMILES: COc1cc(Cc2nccc3cc(OC)c(OC)cc23)c(C(C)=O)c(OC)c1
- T/C [7]: 104 % of control
- T/C (dose: 20.0 mg/kg/injection, schedule: Q07DX002 (ip), vehicle: saline): 110 % of control
- T/C [8]: 103 % of control
- T/C (dose: 40.0 mg/kg/injection, schedule: Q07DX002 (ip), vehicle: saline): 107 % of control
- T/C [9]: 59 % of control
- T/C (dose: 80.0 mg/kg/injection, schedule: Q07DX002 (ip), vehicle: saline): 82 % of control
- T/C (dose: 80.0 mg/kg/injection, schedule: Q07DX002 (ip), vehicle: suspension in saline): 81 % of control
- T/C (dose: 160.0 mg/kg/injection, schedule: Q07DX002 (ip), vehicle: saline): 96 % of control
- T/C (dose: 320.0 mg/kg/injection, schedule: Q07DX002 (ip), vehicle: saline): 74 % of control

SMILES: Cc1c2cc(Cl)c3ccccc3c2c[n+]2ccccc12
- T/C [10]: 94 % of control and 102 % of control
- T/C [11]: 116 % of control
- T/C [12]: 108 % of control and 111 % of control
- T/C [13]: 88 % of control and 98 % of control
- T/C [14]: 99 % of control
- T/C [15]: 120 % of control

SMILES: Cc1cc(O)c2c(c1O)C(=O)C13C(=C2O)C(=O)C2C(O)C1C1C(O)C3C(=O)C3=C(O)c4c(O)cc(C)c(O)c4C(=O)C321 (stereo not drawn)
- T/C [16]: 68 % of control

SMILES: COc1ccc(S(=O)(=O)N/N=C/C(=O)O)cc1
- T/C [16]: 82 % of control
- T/C [11]: 96 % of control and 104 % of control
- T/C [12]: 117 % of control and 100 % of control
- T/C [14]: 87 % of control and 95 % of control

SMILES: C(=N/NC1=NCCN1)/c1c2ccccc2c(/C=N\NC2=NCCN2)c2ccccc12
- T/C (dose: 5.0 mg/kg/injection, schedule: Q07DX002 (ip), vehicle: suspension in saline): 100 % of control
- T/C [7]: 109 % of control
- T/C [8]: 110 % of control
- T/C [9]: 70 % of control

SMILES: CC(C)CC(NC(=O)C(O)C(N)Cc1ccccc1)C(=O)O (stereo not drawn)
- T/C (dose: 10.0 micrograms/mouse/injection, schedule: Q10HX006 (ip), vehicle: saline): 85 % of control
- T/C (dose: 10.0 micrograms/mouse/injection, schedule: Q10HX010 (oral), vehicle: saline): 74 % of control
- T/C (dose: 100.0 micrograms/mouse/injection, schedule: Q10HX006 (ip), vehicle: saline): 50 % of control
- T/C (dose: 100.0 micrograms/mouse/injection, schedule: Q10HX010 (oral), vehicle: saline): 62 % of control

SMILES: CC(=O)OCC1OC(n2ncc(=O)[nH]c2=O)C(OC(C)=O)C1OC(C)=O (stereo not drawn)
- T/C (dose: 50.0 mg/kg/injection, schedule: Q07DX002 (ip), vehicle: suspension in saline): 100 % of control
- T/C (dose: 100.0 mg/kg/injection, schedule: Q07DX002 (ip), vehicle: suspension in saline): 95 % of control
- T/C (dose: 200.0 mg/kg/injection, schedule: Q07DX002 (ip), vehicle: suspension in saline): 52 % of control
- T/C (dose: 400.0 mg/kg/injection, schedule: Q07DX002 (ip), vehicle: suspension in saline): 66 % of control
- T/C (dose: 800.0 mg/kg/injection, schedule: Q07DX002 (ip), vehicle: suspension in saline): 64 % of control

SMILES: O=C1C=CC(=O)N1c1ccc(Cl)cc1
- T/C (dose: 1.25 mg/kg/injection, schedule: Q07DX002 (ip), vehicle: Klucel (hydroxypropylcellulose) (HPC)): 32 % of control
- T/C (dose: 10.0 mg/kg/injection, schedule: Q07DX002 (ip), vehicle: Klucel (hydroxypropylcellulose) (HPC)): 61 % of control and 73 % of control
- T/C (dose: 20.0 mg/kg/injection, schedule: Q07DX002 (ip), vehicle: Klucel (hydroxypropylcellulose) (HPC)): 60 % of control and 67 % of control

SMILES: COC(=O)C(F)C(Br)C(=O)OC (stereo not drawn)
- T/C [16]: 95 % of control and 99 % of control
- T/C [10]: 63 % of control

SMILES: CCCCCCCCCCCCCCCC(=O)O[C@@]12C[C@@H](C)[C@@]3(O)[C@@H](C=C(CO)C[C@]4(O)C(=O)C(C)=C[C@@H]34)[C@@H]1C2(C)C
- T/C (dose: 0.06 mg/kg/injection, schedule: Q07DX002 (ip), vehicle: saline): 92 % of control
- T/C (dose: 0.25 mg/kg/injection, schedule: Q07DX002 (ip), vehicle: saline): 91 % of control
- T/C (dose: 0.5 mg/kg/injection, schedule: Q07DX002 (ip), vehicle: saline): 101 % of control
- T/C (dose: 1.0 mg/kg/injection, schedule: Q07DX002 (ip), vehicle: saline): 60 % of control

SMILES: CC(C)NC(=O)N(CCCCBr)N=O
- T/C [17]: 90 % of control
- T/C [18]: 86 % of control
- T/C [19]: 70 % of control
- T/C [20]: 56 % of control

SMILES: C(COCCOCC1CO1)OCCOCC1CO1 (stereo not drawn)
- T/C [10]: 88 % of control
- T/C [1]: 102 % of control
- T/C [3]: 158 % of control
- T/C [4]: 84 % of control
- T/C [14]: 113 % of control
- T/C [15]: 99 % of control
- T/C [6]: 68 % of control

SMILES: Cc1cc2cc3cc(C)c(N)cc3nc2cc1N
- T/C [16]: 95 % of control
- T/C [10]: 109 % of control
- T/C [12]: 54 % of control
- T/C [13]: 89 % of control

SMILES: CN(C)c1ccc2c(SCC(=O)OCC(=O)[C@@]3(O)CC[C@H]4[C@@H]5CCC6=CC(=O)C=C[C@]6(C)[C@H]5C(=O)C[C@@]43C)c3ccc(N(C)C)cc3nc2c1
- T/C [18]: 82 % of control
- T/C [19]: 69 % of control
- T/C [20]: 56 % of control
- T/C (dose: 400.0 mg/kg/injection, schedule: Q07DX002 (ip), vehicle: Klucel (hydroxypropylcellulose) (HPC)): 77 % of control
- T/C (dose: 800.0 mg/kg/injection, schedule: Q07DX002 (ip), vehicle: Klucel (hydroxypropylcellulose) (HPC)): 62 % of control

SMILES: CN(C)N=Nc1ccccc1
- T/C (dose: 12.5 mg/kg/injection, schedule: Q07DX002 (ip), vehicle: Klucel (hydroxypropylcellulose) (HPC)): 80 % of control and 86 % of control
- T/C [17]: 42 % of control and 49 % of control
- T/C [19]: 24 % of control and 27 % of control

SMILES: C1CC[N-]CC1.[Cl][Pt+2][Cl].[NH-]C1CC1
- T/C (dose: 6.25 mg/kg/injection, schedule: Q07DX002 (ip), vehicle: water): 75 % of control
- T/C (dose: 25.0 mg/kg/injection, schedule: Q07DX002 (ip), vehicle: water): 86 % of control
- T/C (dose: 100.0 mg/kg/injection, schedule: Q07DX002 (ip), vehicle: water): 163 % of control

SMILES: O=C(O)C1Cc2nc[nH]c2CN1CO (stereo not drawn)
- T/C [11]: 93 % of control
- T/C [12]: 117 % of control and 98 % of control
- T/C [13]: 113 % of control and 99 % of control
- T/C [14]: 86 % of control
- T/C [15]: 93 % of control
- T/C (dose: 800.0 mg/kg/injection, schedule: Q07DX002 (ip), vehicle: saline with Tween-80): 89 % of control

From PubChem BioAssay AID212 (DTP/NCI, 2004)
